Results published in publication PMC10142505, “Synthesis, Evaluation of Enzyme Inhibition and Redox Properties of Potential Dual COX-2 and 5-LOX Inhibitors” (Pharmaceuticals, 2023).
Marks after values point to notes of the source that are not given here.

Tested on: human serum pool
Experiment: Redox activity (oxy score from TOS, PAB, TAS, SHG) in vitro in human serum pool
Settings: 37 °C, median (interquartile range); for Oxy score (OS), 2 h incubation, TBH added / Oxy score (OS), 24 h incubation, TBH added: with TBH added; for Oxy score (OS), 2 h incubation / Oxy score (OS), 24 h incubation: without TBH; for Oxy score (OS), 2 h incubation: average of five concentrations
Experimental: The remains of the serum samples were taken from healthy subjects after biochemical analysis; these subjects participated in regular medical examinations at the Military Medical Academy in Belgrade and consented to the formation of a serum pool. Neither the patients’ data nor their identities were used. Serum pool samples were prepared and aliquoted (450 µL portions) according to the routine procedure for in-house controle samples and preserved at the -80 °C until analysis. Five serial dilutions of the tested compounds (concentrations: 1000 µM, 500 µM, 250 µM, 125 µM and 62.5 µM) were added alone (50 µL) or in combination (25 µL) with oxidant TBH (25 µM) into 450 µL of serum. The compounds were dissolved in dimethyl sulfoxide (DMSO) for stock solution (1000 µM), while a PBS buffer (phosphate buffered saline) pH = 7.4 was used for serial dilutions (500 µM, 250 µM, 125 µM and 62.5 µM). Deionized water was used as a blank. DMSO and buffer pH = 7.4 were used as a control, while trolox solution (2 mmol/L) was used as a standard. All samples were incubated in duplicate for 2 h and 24 h at 37 °C.
Oxidative stress parameters (total antioxidative status (TAS), total oxidative status (TOS), total concentration of sulfhydryl group (SHG) and prooxidative–antioxidative balance (PAB)) were determined in order to calculate prooxidative score, antioxidative score and oxy score (OS). These parameters were determined in serum.
Total antioxidative status (TAS) was measured using Erel’s method, which was further optimized by Kotur-Stevuljevic et al. in 2015 [34]. ABTS (2,2-azino-bis(3-ethyl-benzthiazoline-6-sulfonic acid) is oxidized to a green-colored ABTS^+ cation by hydrogen peroxide in the acetate buffer (pH = 3.6). This stable cation is chromogen, and the presence of antioxidants in the samples causes its discoloration proportional to their concentrations. The absorbance was measured using a SPECTROstar Nano Microplate Reader (BMG Labtech, Ortenberg, Germany). The reaction was calibrated with Trolox and the TAS values are expressed as mmol trolox equivalent/L.
Total oxidative status (TOS) was measured using Erel’s method. Here, a ferrous ion-o-dianisidine complex is oxidized to ferric ion by the oxidants present in the sample. The ferric ion forms a colored complex with xylenol orange in an acidic environment and in the presence of glycerol. The intensity of the color of the formed complex is proportional to the total contents of oxidants in the sample. The absorbance was measured at 560 nm using a SPECTROstar Nano Microplate Reader (BMG Labtech, Ortenberg, Germany). The reaction was calibrated with hydrogen peroxide and the TOS values are expressed as µmol H2O2 equivalent/L.
Prooxidant–antioxidant balance (PAB) was measured according to procedures in the literature. Here, hydrogen peroxide is determined in the presence of antioxidants in the sample. Both of them (hydrogen peroxide and antioxidants (including uric acid)) react with chromogen TMB (3,3′,5,5′-tetramethylbenzidine) simultaneously. The hydrogen peroxide and chromogen reaction is enzymatically catalyzed with peroxidase, while the antioxidants–chromogen reaction is non-enzymatic. The intense blue color, produced as a result of the reaction between hydrogen peroxide and TMB, is decolorized by the reaction of the antioxidant with the TMB. The resulting color (result of two competitive reactions) is proportional to the ratio of antioxidants to prooxidants. The absorbance was measured at 450 nm. Different ratios of hydrogen peroxide and uric acid solutions were used to make a standard curve. The PAB results are expressed in hydrogen peroxide concentrations.
Total Sulfydryl Groups Content (SHG) was measured using a modified version of Ellman’s method. This method is based on the reaction between DTNB ([…]) and aliphatic thiol compounds in an alkaline environment (pH = 9.0). […]

Cc1cc(C(C)(C)C)c(O)c(C(C)(C)C)c1 [BHT, Butylated hydroxytoluene, reference compound]
Oxy score (OS), 2 h incubation, TBH added: 7.98 (6.77–8.81)
Oxy score (OS), 2 h incubation: 3.08 (2.73–3.26)
Oxy score (OS), 24 h incubation, TBH added: 4.51 (4.38–7.22)
Oxy score (OS), 24 h incubation: 2.62 (2.14–3.22)

Cc1ccc(-c2cc(C(F)(F)F)nn2-c2ccc(S(N)(=O)=O)cc2)cc1 [Celecoxib, reference compound]
Oxy score (OS), 2 h incubation, TBH added: 7.94 (6.97–8.45)
Oxy score (OS), 2 h incubation: 5.66 (2.92–12.90)
Oxy score (OS), 24 h incubation, TBH added: 4.95 (4.57–10.25)
Oxy score (OS), 24 h incubation: 2.77 (2.46–3.27)

CC(C)(C)OO [TBH, tert-butyl hydroperoxide, reference compound]
Oxy score (OS), 2 h incubation: 6.40 (4.66–11.59)
Oxy score (OS), 24 h incubation: 6.43 (4.73–12.00)

Cc1c(C)c2c(c(C)c1O)CCC(C)(C(=O)O)O2 (centres unmarked) [Trolox, reference compound]
Oxy score (OS), 2 h incubation: 0.54 (−0.66–2.43)
Oxy score (OS), 24 h incubation: 0.07 (−0.59–0.59) *

NC(N)=O [Urea, urea, reference compound]
Oxy score (OS), 2 h incubation, TBH added: 8.11 (7.61–8.79)
Oxy score (OS), 2 h incubation: 3.48 (3.44–4.08)
Oxy score (OS), 24 h incubation, TBH added: 5.19 (4.96–14.00)
Oxy score (OS), 24 h incubation: 4.60 (3.62–6.02)

CC(c1cc2ccccc2s1)N(O)C(N)=O (centres unmarked) [Zileuton, reference compound]
Oxy score (OS), 2 h incubation, TBH added: 6.87 (6.52–7.18)
Oxy score (OS), 2 h incubation: 2.60 (−7.86–7.54)
Oxy score (OS), 24 h incubation, TBH added: 8.80 (5.71–13.66)
Oxy score (OS), 24 h incubation: 3.61 (2.47–4.93)
